Results on two compounds are retold here after patent US20110189266A1, “CORTICOSTEROID MICROVESICLES FOR TREATMENT OF CARDIOVASCULAR DISEASES” (MOUNT SINAI SCHOOL OF MEDICINE OF NEW YORK UNIVERSITY, priority 2008, published 2011).

One assay has as its system neo-intimal formation. The following applies: prednisone- and Taxus stent-treated animals; Ribichini et al 2007; cited from earlier work.
In assay [1] the test system is atherosclerotic plaques of the abdominal aorta. The assay is described as follows: 18F-FDG PET/CT of the abdominal aorta (mean SUV), rabbit model of atherosclerosis. It counts as in vivo, New Zealand White (NZW) rabbits. The following applies: single i.v. injection 15 mg/kg.
Procedure: Seventeen male New Zealand White (NZW) rabbits (mean age 7 months; mean weight 3.5±0.2 kg; Covance) were included in this study. Aortic atherosclerotic plaques were induced in 15 NZW rabbits, through a well established model^18, by a combination of 7 months of high cholesterol diet (4.7% palm oil and 0.3% cholesterol-enriched diet; Research Diet Inc.) and a repeated balloon injury of the aorta (two weeks and six weeks after starting the high cholesterol diet). Aortic injury was performed from the aortic arch to the iliac bifurcation with a 4F Fogarty embolectomy catheter introduced through the femoral artery. […]
PET/CT images were analyzed on a Xeleris workstation. […] SUV was calculated by dividing the tissue concentration (kBq/mL) by the injected dose per gram of body weight (kBq/g).
The scans allow the quantification of the standard uptake value (SUV) of ^18F-FDG in the abdominal aorta. The SUV is the decay-corrected tissue concentration of FDG (in kBq/g), corrected for injected FDG dose and body weight (in kBq/g), and is a well-recognized method for quantification of FDG PET data. Prior to start of treatment, the aortas of six atherosclerotic rabbits and two non-atherosclerotic rabbits were measured to establish mean SUV levels of atherosclerotic and non-atherosclerotic rabbits.
Assay [2] concerns atherosclerotic plaque permeability, aortic wall. In words: Dynamic contrast enhanced MRI (DCE-MRI) to quantify changes in plaque permeability. The following applies: before vs two days after administration. The format is in vivo, New Zealand White (NZW) rabbits.

Regarding `C[C@]12C=CC(=O)C=C1CC[C@@H]1[C@@H]2C(=O)C[C@@]2(C)[C@H]1CC[C@]2(O)C(=O)CO` [prednisone], the neo-intimal formation entry with neo-intimal formation is recorded as “reduced neo-intimal formation”.

Regarding “prednisolone phosphate disodium salt [free circulating glucocorticoids]”, the “SUV differences between pre, and two and seven days post treatment” value in assay [1] was “no significant SUV differences”. The “SUV change one week post-treatment” value in assay [1] (one week post-treatment vs pre, p=0.006 (liposomal), p=0.40 (free)) was “no SUV reduction”. Also, in assay [2], the “change of DCE-MRI area under the curve (AUC) of the aortic wall” value is recorded as “not”.
